Our source for the IC50 and IC90 values is ChEMBL document CHEMBL4483862, “Open-source discovery of chemical leads for next-generation chemoprotective antimalarials” (2018).

The test system of this experiment is Plasmodium berghei. Briefly: Luciferase/luciferin-expressing antifolate-resistant parasites were used to infect a culture of HepG2 cells that were pre-incubated with compounds. Infected hepatocytes emit light due to the luciferase reaction. Assay results are presented as the percent inhibition of light emission compared to control. […]. It is filed as functional. As to conditions: sporozoite; for IC90: read-out: LUCIFERASE INFECTION ASSAY - IC90.

Setting [1] is: read-out: LUCIFERASE INFECTION ASSAY - IC50.

As a reminder, the IC50 is the point on the concentration scale where inhibition reaches its midpoint. By IC90 is commonly meant the concentration at which the effect reaches the 90% level.

Regarding `COc1ccc(/C=C(\C#N)c2n[nH]c(=O)c3ccccc23)cc1`, the concentration for an effect of 90% (IC90) is above 10 µM. For the same molecule, the IC50 under setting [1] came out at 4.17 µM.
For the molecule `Cc1cc(C(=O)ONC(=N)c2ccccc2)nn1C(C)(C)C`, the IC90 is 1.23 µM. The IC50 (FFLUC_HILL_SLOPE 2.36, FFLUC_R_SQUARED 0.364, PBLUC_HILL_SLOPE 1.16, PBLUC_R_SQUARED 0.78, read-out: LUCIFERASE INFECTION ASSAY - IC50) is 0.186 µM.
Turning to `CC1CCc2sc(C(=O)Nc3cccc4c3C(=O)NC4)cc2C1` (configuration not stated), the concentration for an effect of 90% (IC90) came to 4.22 µM. Under setting [1], the IC50 amounted to 3.61 µM.
With `N#C/C(=N\Nc1ccc(OC(F)(F)F)cc1)C(=O)c1ccsc1`, the 90% effect concentration (IC90) was 6.42 µM. In addition, under “HEPG2TOX_HILL_SLOPE 1.43, HEPG2TOX_R_SQUARED 0.957, PBLUC_HILL_SLOPE 2.41, PBLUC_R_SQUARED 0.455, read-out: LUCIFERASE INFECTION ASSAY - IC50”, the IC50 is 2.58 µM.
For `COc1ccc(-c2cc(NC(=O)Cc3ccc(S(=O)(=O)N4CCCC4)s3)ccc2OC)cc1`, the IC90 amounted to 4.64 µM. Further, the half-inhibitory concentration (IC50) (FFLUC_HILL_SLOPE 14.7, FFLUC_R_SQUARED 0.565, HEPG2TOX_HILL_SLOPE 10.6, HEPG2TOX_R_SQUARED 0.932, PBLUC_HILL_SLOPE 12.2, PBLUC_R_SQUARED 0.78, read-out: LUCIFERASE INFECTION ASSAY - IC50) was 3.88 µM.
In the case of `CN1C/C(=C\c2ccccc2)C(=O)/C(=C/c2ccccc2)C1`, the IC90 was above 11.4 µM. For the same molecule, the IC50 under setting [1] was above 11.4 µM.
For `CCN(CC)CCN1COc2c(cc(Cl)c3cccnc23)C1`, the IC90 turned out to be 4.94 µM. Also, the IC50 (HEPG2TOX_HILL_SLOPE 1.86, HEPG2TOX_R_SQUARED 0.951, PBLUC_HILL_SLOPE 8.52, PBLUC_R_SQUARED 0.457, read-out: LUCIFERASE INFECTION ASSAY - IC50) came to 3.81 µM.
For the molecule `Cc1nc(SCC(=O)NCCN2C(=O)CSC2=O)n(C2CCCCC2)c1C`, the 90% effect concentration (IC90) is above 10 µM. In addition, the half-inhibitory concentration (IC50) under setting [1] was above 10 µM.
Consider `Cc1ccc(CSCCNC(=O)c2ccc3c[nH]nc3c2)cc1`, for which the 90% effect concentration (IC90) was above 10 µM. Besides, the IC50 (PBLUC_HILL_SLOPE 1.22, PBLUC_R_SQUARED 0.508, read-out: LUCIFERASE INFECTION ASSAY - IC50) worked out at 4.61 µM.
`Cc1ccc2c(c1)nc1n2CN(CCN2CCOCC2)CN1Cc1ccccc1`: the IC90 turned out to be 1.1 µM. For the same molecule, the half-maximal inhibitory concentration (IC50) (HEPG2TOX_HILL_SLOPE 1.27, HEPG2TOX_R_SQUARED 0.847, PBLUC_HILL_SLOPE 11.9, PBLUC_R_SQUARED 0.472, read-out: LUCIFERASE INFECTION ASSAY - IC50) turned out to be 0.911 µM.
As to `Cn1cnnc1-c1cccc(NC(=O)c2ccc(=O)n(Cc3ccccc3)n2)c1`, the IC90 is above 10 µM. For the same molecule, the half-maximal inhibitory concentration (IC50) under setting [1] is above 10 µM.
With `COC(=O)C1=C2N(C)c3ccccc3N2C(Nc2ccc(C)cc2)=NC1C(F)(F)F.Cc1ccc(C)cc1` (configuration not stated), the 90% effect concentration (IC90) was above 10 µM. The IC50 (FFLUC_HILL_SLOPE 2.2, FFLUC_R_SQUARED 0.697, HEPG2TOX_HILL_SLOPE 5.36, HEPG2TOX_R_SQUARED 0.5, PBLUC_HILL_SLOPE 4.61, PBLUC_R_SQUARED 0.0573, read-out: LUCIFERASE INFECTION ASSAY - IC50) was 7.42 µM.
As for `COc1ccc(C2=CS/C(=C(/C#N)c3nnc4n3CCCCC4)N2c2ccccc2)cc1`, the IC90 was above 10 µM. For the same molecule, the concentration for half-maximal inhibition (IC50) (PBLUC_HILL_SLOPE 18.4, PBLUC_R_SQUARED 0.0899, read-out: LUCIFERASE INFECTION ASSAY - IC50) was determined as 9.78 µM.
With `COc1ccc(-c2cnc3cnc(-c4ccc(C(=O)NC5CC5)cc4)cn23)cc1`, the IC90 was determined as 3.59 µM. Moreover, for the setting “PBLUC_HILL_SLOPE 9.57, PBLUC_R_SQUARED 0.525, read-out: LUCIFERASE INFECTION ASSAY - IC50”, the half-maximal inhibitory concentration (IC50) stood at 2.85 µM.
`N#C/C(=N\Nc1ccc(C(F)(F)F)cc1)S(=O)(=O)c1cccs1`: the concentration for an effect of 90% (IC90) turned out to be 8.89 µM. For the same molecule, the IC50 (HEPG2TOX_HILL_SLOPE 12.1, HEPG2TOX_R_SQUARED 0.95, PBLUC_HILL_SLOPE 4.11, PBLUC_R_SQUARED 0.238, read-out: LUCIFERASE INFECTION ASSAY - IC50) was found to be 5.21 µM.
As for `CC1CCc2sc(C(=O)OCC(=O)NCCN3C(=O)CSC3=S)cc2C1` (configuration not stated), the 90% effect concentration (IC90) is above 10 µM. The half-maximal inhibitory concentration (IC50) under setting [1] was above 10 µM.
In the case of `CC1CCc2sc(C(=O)N/N=C/c3sc(N4CCCCC4)nc3-c3cccs3)cc2C1` (configuration not stated), the IC90 came to 5.03 µM. Besides, where the note is “FFLUC_HILL_SLOPE 3.43, FFLUC_R_SQUARED 0.712, HEPG2TOX_HILL_SLOPE 2.9, HEPG2TOX_R_SQUARED 0.728, PBLUC_HILL_SLOPE 3.74, PBLUC_R_SQUARED 0.491, read-out: LUCIFERASE INFECTION ASSAY - IC50”, the half-inhibitory concentration (IC50) was determined as 2.79 µM.
Turning to `C=CCN(c1ccccc1OC)S(=O)(=O)c1ccc(Cl)c(C(=O)Nc2nc3ccccc3[nH]2)c1`, the 90% effect concentration (IC90) was above 10 µM. Moreover, the IC50 (HEPG2TOX_HILL_SLOPE 2.58, HEPG2TOX_R_SQUARED 0.695, PBLUC_HILL_SLOPE 1.17, PBLUC_R_SQUARED 0.361, read-out: LUCIFERASE INFECTION ASSAY - IC50) is 2.23 µM.
On to `COC(=O)c1cc(N/N=C2\C=CC(=O)c3ncccc32)cc(C(=O)OC)c1`, for which the IC90 is 3.38 µM. Besides, the 50% inhibitory concentration (IC50) (FFLUC_HILL_SLOPE 11, FFLUC_R_SQUARED 0.42, HEPG2TOX_HILL_SLOPE 0.866, HEPG2TOX_R_SQUARED 0.908, PBLUC_HILL_SLOPE 2.75, PBLUC_R_SQUARED 0.794, read-out: LUCIFERASE INFECTION ASSAY - IC50) turned out to be 1.52 µM.
For `CCc1nn2c(=O)cc(CSc3nccc(C)n3)[nH]c2c1-c1ccc(F)cc1`, the IC90 is above 8.34 µM. The IC50 (HEPG2TOX_HILL_SLOPE 0.32, HEPG2TOX_R_SQUARED 0.345, PBLUC_HILL_SLOPE 2.6, PBLUC_R_SQUARED 0.743, read-out: LUCIFERASE INFECTION ASSAY - IC50) was 4.67 µM.
Turning to `CCOc1ccccc1NC(=O)/C=C/c1nnc2c3ccccc3cnn12`, the IC90 is above 10 µM. The half-maximal inhibitory concentration (IC50) (HEPG2TOX_HILL_SLOPE 0.359, HEPG2TOX_R_SQUARED 0.214, PBLUC_HILL_SLOPE 0.79, PBLUC_R_SQUARED 0.499, read-out: LUCIFERASE INFECTION ASSAY - IC50) came out at 1.82 µM.
Consider `CCN1C(=O)N(CC(N)=O)C(=O)C12CCN(Cc1ccc(N(C)c3ccccc3)cc1)CC2`, for which the IC90 is above 7.34 µM. The IC50 (HEPG2TOX_HILL_SLOPE 2.17, HEPG2TOX_R_SQUARED 0.96, PBLUC_HILL_SLOPE 2.1, PBLUC_R_SQUARED 0.458, read-out: LUCIFERASE INFECTION ASSAY - IC50) is 3.27 µM.
On to `CN(CCOc1ccc(Br)cc1)CC(O)COc1ccc(C#N)cc1` (configuration not stated), for which the 90% effect concentration (IC90) was above 10 µM. For the same molecule, the 50% inhibitory concentration (IC50) under setting [1] is 8.69 µM.
As for `Cc1[nH]c2ccc(C(=O)Nc3nc(CN4CCCC(C)C4)cs3)cc2c1C` (configuration not stated), the concentration for an effect of 90% (IC90) is above 10 µM. Moreover, under setting [1], the IC50 is above 10 µM.
`Cc1cc(C)cc(NC(=O)C(NNC(=O)CC23CC4CC(CC(C4)C2)C3)c2ccccc2)c1` (configuration not stated): the IC90 is above 10 µM. Moreover, under setting [1], the IC50 is above 10 µM.
Regarding `C/C(=N\c1cc(C(F)(F)F)ccc1Cl)Nc1ccc(C)cc1`, the concentration for an effect of 90% (IC90) was above 10 µM. Also, the IC50 under setting [1] is above 10 µM.
Turning to `O=c1c2ccccc2cnn1-c1nc2ccccc2[nH]1`, the concentration for an effect of 90% (IC90) is above 10 µM. The IC50 (HEPG2TOX_HILL_SLOPE 1.61, HEPG2TOX_R_SQUARED 0.823, PBLUC_HILL_SLOPE 0.454, PBLUC_R_SQUARED 0.451, read-out: LUCIFERASE INFECTION ASSAY - IC50) was 4.95 µM.
On to `C=CCNC(=S)Nc1ccc(Oc2cc(C(F)(F)F)cc(C(F)(F)F)c2)cc1`, for which the concentration for an effect of 90% (IC90) was found to be 6.91 µM. In addition, the IC50 under setting [1] was found to be 3.04 µM.
Turning to `O=C(N/N=C/c1cc(Cl)ccc1O)N/N=C/c1cc(Cl)ccc1O`, the concentration for an effect of 90% (IC90) is above 8.99 µM. Besides, the concentration for half-maximal inhibition (IC50) (HEPG2TOX_HILL_SLOPE 7.47, HEPG2TOX_R_SQUARED 0.53, read-out: LUCIFERASE INFECTION ASSAY - IC50) was above 8.99 µM.
`COc1ccc(NS(=O)(=O)c2cc(NC(=O)C3=NNC(=O)CC3)ccc2C)cc1`: the IC90 was above 10 µM. Further, the IC50 (HEPG2TOX_HILL_SLOPE 2.75, HEPG2TOX_R_SQUARED 0.923, PBLUC_HILL_SLOPE 2.64, PBLUC_R_SQUARED 0.0563, read-out: LUCIFERASE INFECTION ASSAY - IC50) worked out at 4.97 µM.
Take `N#Cc1nn(-c2cccc(Cl)c2)c(=O)cc1Cl`: the 90% effect concentration (IC90) stood at 11.9 µM. Under “FFLUC_HILL_SLOPE 0.646, FFLUC_R_SQUARED 0.469, HEPG2TOX_HILL_SLOPE 5.31, HEPG2TOX_R_SQUARED 0.933, PBLUC_HILL_SLOPE 9.19, PBLUC_R_SQUARED 0.334, read-out: LUCIFERASE INFECTION ASSAY - IC50”, the 50% inhibitory concentration (IC50) amounted to 9.36 µM.
For `COc1ccc(C=C(c2nc3ccccc3s2)c2nc3ccccc3s2)c(OC)c1OC`, the concentration for an effect of 90% (IC90) was above 10 µM. For the same molecule, the half-inhibitory concentration (IC50) (HEPG2TOX_HILL_SLOPE 1.46, HEPG2TOX_R_SQUARED 0.78, PBLUC_HILL_SLOPE 2.12, PBLUC_R_SQUARED 0.479, read-out: LUCIFERASE INFECTION ASSAY - IC50) turned out to be 7.05 µM.
Consider `CC(C)c1ccc(-c2cnc3sc(NCCCO)nn23)cc1`, for which the concentration for an effect of 90% (IC90) was above 10.4 µM. In addition, the IC50 under setting [1] is above 10.4 µM.
On to `CC1CCN(CC(O)COC2CC(C)CC(C)(C)C2)CC1` (configuration not stated), for which the IC90 is above 9.88 µM. The 50% inhibitory concentration (IC50) under setting [1] was above 9.88 µM.
In the case of `NC(=O)c1ccsc1NC(=O)Cc1coc2cc3c(cc12)CCC3`, the IC90 came out at 3.88 µM. Also, the 50% inhibitory concentration (IC50) (FFLUC_HILL_SLOPE 3.24, FFLUC_R_SQUARED 0.678, PBLUC_HILL_SLOPE 11.8, PBLUC_R_SQUARED 0.833, read-out: LUCIFERASE INFECTION ASSAY - IC50) was found to be 3.22 µM.
With `CC(C)C1CCC(C)C(OCC(O)CN2CCN(Cc3ccc4c(c3)OCO4)CC2)C1` (configuration not stated), the 90% effect concentration (IC90) is above 10 µM. Besides, the 50% inhibitory concentration (IC50) under setting [1] was above 10 µM.
